Structures can show the parent of a compound that is named as a salt.
Biological target: T1, human β-Secretase (Homo sapiens, UniProt P56817)
T1 construct: The soluble part of the human β-Secretase (AA 1-AA 460) was cloned; made in house
Assay: TR-FRET assay
Assay type: biochemical

T1 sequence (P56817 22-460): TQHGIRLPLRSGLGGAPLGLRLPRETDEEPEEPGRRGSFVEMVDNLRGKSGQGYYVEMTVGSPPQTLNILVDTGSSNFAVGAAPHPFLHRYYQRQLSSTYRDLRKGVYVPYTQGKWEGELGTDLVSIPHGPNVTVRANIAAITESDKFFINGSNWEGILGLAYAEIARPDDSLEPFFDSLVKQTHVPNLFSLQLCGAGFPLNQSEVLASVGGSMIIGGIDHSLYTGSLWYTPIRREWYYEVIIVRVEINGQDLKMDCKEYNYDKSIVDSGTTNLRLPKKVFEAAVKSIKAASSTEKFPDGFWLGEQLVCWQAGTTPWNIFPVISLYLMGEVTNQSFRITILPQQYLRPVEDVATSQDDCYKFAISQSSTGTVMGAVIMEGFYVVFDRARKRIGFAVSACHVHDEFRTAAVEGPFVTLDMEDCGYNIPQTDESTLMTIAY

SMILES | IC50 [nM]
NC1=NC(c2ccccc2)(c2ccccc2)c2ccccc21 [Example 1, 3,3-Diphenyl-3H-isoindol-1-ylamine] | 9140
NC1=NC(c2ccc(O)cc2)(c2ccc(O)cc2)c2ccccc21 [Example 6, 4,4′-(3-Amino-isoindole-1,1-diyl)-bis-phenol] | 3520
NC1=NC(c2cccc(-c3cccnc3F)c2)(c2ccc3c(c2)OCCO3)c2ccccc21 (stereo not drawn) [Example 15, 3-(2,3-Dihydrobenzo[b][1,4]dioxin-6-yl)-3-(3-(2-fluoropyridin-3-yl)phenyl)-3H-isoindol-1-amine trifluoroacetate] | 748
COc1cncc(-c2cccc(C3(c4ccc5c(c4)OCCO5)N=C(N)c4ccccc43)c2)c1 (stereo not drawn) [Example 16, 3-(2,3-Dihydrobenzo[b][1,4]dioxin-6-yl)-3-(3-(5-methoxypyridin-3-yl)phenyl)-3H-isoindol-1-amine trifluoroacetate] | 425
NC1=NC(c2cccc(-c3cccnc3)c2)(c2ccc3c(c2)OCCO3)c2ccccc21 (stereo not drawn) [Example 17, 3-(2,3-Dihydrobenzo[b][1,4]dioxin-6-yl)-3-(3-(pyridin-3-yl)phenyl)-3H-isoindol-1-amine trifluoroacetate] | 1520
NC1=NC(c2cccc(-c3cncnc3)c2)(c2ccc3c(c2)OCCO3)c2ccccc21 (stereo not drawn) [Example 18, 3-(2,3-Dihydrobenzo[b][1,4]dioxin-6-yl)-3-(3-(pyrimidin-5-yl)phenyl)-3H-isoindol-1-amine trifluoroacetate] | 593
COc1ccc(C2(c3cccc(Br)c3)N=C(N)c3ccccc32)cc1C (stereo not drawn) [Example 19, 3-(3-Bromo-phenyl)-3-(4-methoxy-3-methyl-phenyl)-3H-isoindol-1-ylamine trifluoroacetate] | 1360
COc1ccc(C2(c3cccc(-c4cccnc4)c3)N=C(N)c3ccccc32)cc1C (stereo not drawn) [Example 22, 3-(4-Methoxy-3-methyl-phenyl)-3-(3-pyridin-3-yl-phenyl)-3H-isoindol-1-ylamine trifluoroacetate] | 145
COc1ccc(C2(c3cccc(-c4cncnc4)c3)N=C(N)c3ccccc32)cc1C (stereo not drawn) [Example 23, 3-(4-Methoxy-3-methyl-phenyl)-3-(3-pyrimidin-5-yl-phenyl)-3H-isoindol-1-ylamine trifluoroacetate] | 88
COc1cc(OS(C)(=O)=O)cc(-c2cccc(C3(c4ccc5c(c4)OCCO5)N=C(N)c4ccccc43)c2)c1 (stereo not drawn) [Example 26, 5′-(3-Amino-1-(2,3-dihydrobenzo[b][1,4]dioxin-6-yl)-1H-isoindol-1-yl)-5-methoxybiphenyl-3-yl methanesulfonate trifluoroacetate] | 1280
COc1cccc(-c2cccc(C3(c4ccc5c(c4)OCCO5)N=C(N)c4ccccc43)c2)c1 (stereo not drawn) [Example 27, 3-(2,3-Dihydrobenzo[b][1,4]dioxin-6-yl)-3-(3′-methoxybiphenyl-3-yl)-3H-isoindol-1-amine trifluoroacetate] | 1060
NC1=NC(c2cccc(-c3cccnc3)c2)(c2ccc3c(c2)OCO3)c2ccccc21 (stereo not drawn) [Example 28, 3-Benzo[1,3]dioxol-5-yl-3-(3-pyridin-3-yl)-3H-isoindol-1-ylamine trifluoroacetate] | 1610
NC1=NC(c2cccc(-c3cncnc3)c2)(c2ccc3c(c2)OCO3)c2ccccc21 (stereo not drawn) [Example 30, 3-Benzo[1,3]dioxol-5-yl-3-(3-pyrimidin-5-ylphenyl)-3H-isoindol-1-ylamine trifluoroacetate] | 942

Next, values leading:

IC50 [nM] | SMILES
110 | COc1ccc(C2(c3cccc(-c4cccc(OC)c4)c3)N=C(N)c3ccccc32)cc1 (stereo not drawn) [Example 2, 3-(3′-Methoxy-biphenyl-3-yl)-3-(4-methoxy-phenyl)-3H-isoindol-1-ylamine trifluoroacetate]
12000 | COc1ccc(C2(c3ccc(OS(=O)(=O)C(F)(F)F)c(-c4cccc(OC)c4)c3)N=C(N)c3ccccc32)cc1 (stereo not drawn) [Example 3, Trifluoro-methanesulfonic acid 5-[3-amino-1-(4-methoxy-phenyl)-1H-isoindol-1-yl]-3′-methoxy-biphenyl-2-yl ester trifluoroacetate]
67 | COc1ccc(C2(c3ccc(O)c(-c4cccc(OC)c4)c3)N=C(N)c3ccccc32)cc1 (stereo not drawn) [Example 4, 5-[3-Amino-1-(4-methoxy-phenyl)-1H-isoindol-1-yl]-3′-methoxy-biphenyl-2-ol trifluoroacetate]
86 | COc1ccc(C2(c3ccc(O)c(-c4cccnc4)c3)N=C(N)c3ccccc32)cc1 (stereo not drawn) [Example 7, 4-[3-Amino-1-(4-methoxy-phenyl)-1H-isoindol-1-yl]-2-pyridin-3-yl-phenol trifluoroacetate]
40 | COc1ccc(C2(c3ccc(O)c(-c4cncnc4)c3)N=C(N)c3ccccc32)cc1 (stereo not drawn) [Example 8, 4-[3-Amino-1-(4-methoxy-phenyl)-1H-isoindol-1-yl]-2-pyrimidin-5-yl-phenol trifluoroacetate]
154 | COc1ccc(C2(c3cccc(-c4cccnc4)c3)N=C(N)c3ccccc32)cc1 (stereo not drawn) [Example 9, 3-(4-Methoxy-phenyl)-3-(3-pyridin-3-yl-phenyl)-3H-isoindol-1-ylamine trifluoroacetate]
78 | COc1ccc(C2(c3cccc(-c4cccnc4F)c3)N=C(N)c3ccccc32)cc1 (stereo not drawn) [Example 10, 3-[3-(2-Fluoro-pyridin-3-yl)-phenyl]-3-(4-methoxy-phenyl)-3H-isoindol-1-ylamine trifluoroacetate]
68 | COc1ccc(C2(c3cccc(-c4cncc(OC)c4)c3)N=C(N)c3ccccc32)cc1 (stereo not drawn) [Example 12, 3-(4-Methoxy-phenyl)-3-[3-(5-methoxy-pyridin-3-yl)-phenyl]-3H-isoindol-1-ylamine trifluoroacetate]
106 | COc1ccc(C2(c3cccc(-c4cncnc4)c3)N=C(N)c3ccccc32)cc1 (stereo not drawn) [Example 13, 3-(4-Methoxy-phenyl)-3-(3-pyrimidin-5-yl-phenyl)-3H-isoindol-1-ylamine trifluoroacetate]
153 | COc1ccc(C2(c3cccc(-c4cc(OC)cc(OS(C)(=O)=O)c4)c3)N=C(N)c3ccccc32)cc1 (stereo not drawn) [Example 14, Methanesulfonic acid 3′-[3-amino-1-(4-methoxy-phenyl)-1H-isoindol-1-yl]-5-methoxy-biphenyl-3-yl ester trifluoroacetate]
101 | COc1cccc(-c2cccc(C3(c4ccc(OC)c(C)c4)N=C(N)c4ccccc43)c2)c1 (stereo not drawn) [Example 20, 3-(3′-Methoxy-biphenyl-3-yl)-3-(4-methoxy-3-methyl-phenyl)-3H-isoindol-1-ylamine trifluoroacetate]
42 | COc1cncc(-c2cccc(C3(c4ccc(OC)c(C)c4)N=C(N)c4ccccc43)c2)c1 (stereo not drawn) [Example 21, 3-(4-Methoxy-3-methyl-phenyl)-3-[3-(5-methoxy-pyridin-3-yl)-phenyl]-3H-isoindol-1-ylamine trifluoroacetate]
54 | COc1ccc(C2(c3cccc(-c4cccnc4F)c3)N=C(N)c3ccccc32)cc1C (stereo not drawn) [Example 24, 3-[3-(2-Fluoro-pyridin-3-yl)-phenyl]-3-(4-methoxy-3-methyl-phenyl)-3H-isoindol-1-ylamine trifluoroacetate]
86 | COc1cc(OS(C)(=O)=O)cc(-c2cccc(C3(c4ccc(OC)c(C)c4)N=C(N)c4ccccc43)c2)c1 (stereo not drawn) [Example 25, Methanesulfonic acid 3′-[3-amino-1-(4-methoxy-3-methyl-phenyl)-1H-isoindol-1-yl]-5-methoxy-biphenyl-3-yl ester trifluoroacetate]
